According to US12427151B2, “Compositions and method of treating cancer” (The Regents of the University of California, priority 2017, dated 2025):

Test system: GAS
Assay: Comparison of antimicrobial activity of natural and synthetic 6-HAP
Assay type: cell-based, group A Streptococcus
Settings: THB overnight, OD600
Protocol: GAS (1×10^5 CFU/mL) were incubated with indicated concentrations of purified 6-HAP or synthetic 6-HAP in THB overnight. Bacterial growth was monitored by measuring OD600 (relative % of growth index).
Structural analyses of antibiotic produced by S. epidermidis. High-resolution electrospray (ES)-mass spectrometry analysis of the purified antimicrobial fraction identified a molecule with a mass of 151.0487, predicting a molecular formula of C5H5N5O (calculated: 151.0489) (FIG. 3a). […] Given the chemical formula as C5H5N5O, the structure was predicted as 6-N-hydroxyaminopurine (6-HAP). To confirm this predicted structure we performed a chemical synthesis of 6-HAP. […] In addition, the fragmentation profile of natural compound by electron-impact MS (FIG. 3e) also matched that of synthetic product (FIG. 3f).

Question: `ONc1ncnc2nc[nH]c12` [6-HAP, 6-N-hydroxyaminopurine] was tested. Which “antimicrobial activity against GAS, synthetic versus natural product” value did it give?
Answer: The value was “comparable to that of natural product”.
